{"source": "patent US8003659B2", "about": "“Macrocyclic serine protease inhibitors” (Indenix Pharmaceuticals, Inc., priority 2008, dated 2011)", "key": {"[1]": {"tested_on": "mutant protease R155Q", "assay": "Resistance profile, mutant protease R155Q", "format": "biochemical, HCV", "details": "ratio of inhibitory activity against mutant enzyme over non-mutant enzyme", "protocol": "(§1) General procedure: Measurement of the inhibitory effect of compounds on HCV protease activity was performed with the SensoLyte™ 620 HCV Protease Assay kit from AnaSpec, Inc. (San Jose, Calif.) under conditions described by the supplier using 1.2 nM HCV NS3-NS4A protease, which was obtained according to Taremi et al. (Protein Science, 1998, 7, 2143-2149). The compounds were tested at a variety of concentrations in assay buffer containing a final DMSO concentration of 5%. Reactions were allowed to proceed for 60 min at room temperature and fluorescence measurements were recorded with a Tecan Infinity Spectrofluorimeter. The IC50 values were determined from the percent inhibition versus concentration data using a sigmoidal non-linear regression analysis based on four parameters with Tecan Magellan software.\n(§2) Compounds were evaluated against three mutant proteases R155Q, A156S, and D168A, as summarized in Table 8, wherein A represents a value smaller than 1, and B represents a value between 1 to 10, and C represents a value greater than 10. The fold of change in inhibitory activity was determined by measuring the ratio of the inhibitory activity of a compound against a mutant enzyme over the inhibitory activity of the same compound against non-mutant enzyme. The inhibitory activity was determined using the procedure as described in Example 31."}, "[2]": {"details": "from C=CCCCCN(C)C(=O)[C@@H]1C[C@H](Oc2cc(-c3nc(C(C)C)cs3)nc3c(Cl)c(OC)ccc23)CN1C(=O)N[C@]1(C(=O)NS(=O)(=O)C2CC2)C[C@H]1C=C; rcm bond; 14-membered ring; Zhan 1B (2%); DCE; 5.0 mM; 75.0 °C; 0.75 h"}, "[3]": {"target": "T1, HCV NS3-NS4A protease (Hepatitis C virus genotype 1b, UniProt P26663)", "T1 construct": "made in house", "T1 sequence (P26663 1027-1208)": "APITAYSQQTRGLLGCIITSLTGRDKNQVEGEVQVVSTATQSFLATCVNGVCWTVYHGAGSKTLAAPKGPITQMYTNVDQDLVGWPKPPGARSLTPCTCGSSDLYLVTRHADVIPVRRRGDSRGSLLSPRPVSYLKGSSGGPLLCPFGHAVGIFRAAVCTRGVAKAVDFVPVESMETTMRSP", "assay": "HCV Protease Assay (SensoLyte 620 HCV Protease Assay kit)", "format": "biochemical", "details": "1.2 nM HCV NS3-NS4A protease, 60 min at room temperature, 5% DMSO", "in_short": "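Protease at 1.2 nM, run with the SensoLyte 620 fluorogenic kit under supplier conditions, with compounds at several concentrations in buffer with 5% final DMSO. Reactions ran 60 min at room temperature before fluorescence reading; IC50 from four-parameter sigmoidal fit of percent inhibition.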"}, "[4]": {"tested_on": "mutant protease A156S", "assay": "Resistance profile, mutant protease A156S", "format": "biochemical, HCV", "details": "ratio of inhibitory activity against mutant enzyme over non-mutant enzyme", "protocol": "as §1, §2"}, "[5]": {"tested_on": "Huh-7 cells containing HCV Con1 subgenomic replicon (GS4.1 cells)", "assay": "HCV Replicon Assay (NS4A ELISA)", "format": "cell-based", "details": "Hepatitis C virus, Huh-7, 72 hr, NS4A protein by ELISA", "in_short": "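GS4.1 cells (Huh-7 with HCV Con1 subgenomic replicon) given ten 2-fold compound dilutions (top 75 μM) or a single 15 μM dose in 0.5% DMSO for 72 h at 37 °C. NS4A measured by cell ELISA (A492); EC50 from four-parameter sigmoidal fit, single-dose results as % inhibition at 15 μM.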"}, "[6]": {"assay": "Cytotoxicity evaluation (Cell Titer 96 AQueous One Solution Cell Proliferation Assay)", "format": "cell-based", "details": "human; GS4.1 cells, cellular viability", "protocol": "For cytotoxicity evaluation, GS4.1 cells were treated with compounds as described above and cellular viability was monitored using the Cell Titer 96 AQueous One Solution Cell Proliferation Assay (Promega). CC50 values were determined from the % cytotoxicity versus concentration data with Tecan Magellan software as described above."}, "[7]": {"tested_on": "mutant protease D168A", "assay": "Resistance profile, mutant protease D168A", "format": "biochemical, HCV", "details": "ratio of inhibitory activity against mutant enzyme over non-mutant enzyme", "protocol": "as §1, §2"}}, "data": [{"compound": "COc1ccc2c(O[C@H]3C[C@H]4C(=O)N(C)CCCC/C=C\\[C@@H]5C[C@@]5(C(=O)NS(=O)(=O)C5CC5)NC(=O)N4C3)cc(-c3nc(C(C)C)cs3)nc2c1Cl", "note": "[Compound 62d, (Z)-(4R,6S,15S,17S)-[17-[8-chloro-7-methoxy-2-(4-isopropylthiazol-2-yl)quinolin-4-yloxy]-13-N-methyl-2,14-dioxo-1,3,13-triazatricyclo[13.3.0.0]octadec-7-en-4-yl]carbonyl(cyclopropyl)sulfonamide]", "values": [{"measurement": "Fold-Change R155Q", "setting": "[1]", "result": "A (A represents a value smaller than 1)"}, {"measurement": "ring closure, isolated yield", "setting": "[2]", "result": 63, "unit": "%"}, {"measurement": "IC50", "setting": "[3]", "result": "< 1000", "unit": "nM"}, {"measurement": "Fold-Change A156S", "setting": "[4]", "result": "A (A represents a value smaller than 1)"}, {"measurement": "EC50", "setting": "[5]", "result": "< 1000", "unit": "nM"}, {"measurement": "CC50", "setting": "[6]", "result": "> 75000", "unit": "nM"}, {"measurement": "Fold-Change D168A", "setting": "[7]", "result": "C (C represents a value greater than 10)"}]}]}
